Test results: patent US5516894A, “A2b -adenosine receptors” (priority 1994, dated 1996)
Entries after “also recorded” stand apart in the source; their conditions may differ.

Experiments:
[1] = target: T1, rat A1-adenosine receptor (Rattus norvegicus, UniProt P25099); experiment: [3H]ligand binding to COS-6M cells transiently transfected with rat A1-adenosine receptor cDNA; settings: [3H]NECA 20 nM, [3H]CCPA 2 nM
T1 sequence (P25099 1-326): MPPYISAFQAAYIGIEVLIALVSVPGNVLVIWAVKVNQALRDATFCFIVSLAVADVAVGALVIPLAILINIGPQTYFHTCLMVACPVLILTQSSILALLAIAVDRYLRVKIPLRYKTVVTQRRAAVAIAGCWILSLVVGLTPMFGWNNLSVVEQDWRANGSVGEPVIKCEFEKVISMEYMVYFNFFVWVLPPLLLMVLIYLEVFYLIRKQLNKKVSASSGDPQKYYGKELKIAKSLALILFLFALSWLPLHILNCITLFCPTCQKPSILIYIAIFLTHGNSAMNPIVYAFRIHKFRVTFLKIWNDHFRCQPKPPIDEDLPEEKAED

[2] = target: T2, RFL9 (rat A2b-adenosine receptor) (Rattus norvegicus, UniProt P29276); experiment: ligand binding to COS-6M cells transiently transfected with RFL9; settings: for specific binding: [3H]NECA 20 nM, [3H]CCPA 2 nM, [3H]CGS-21680 20 nM
T2 sequence (P29276 1-332): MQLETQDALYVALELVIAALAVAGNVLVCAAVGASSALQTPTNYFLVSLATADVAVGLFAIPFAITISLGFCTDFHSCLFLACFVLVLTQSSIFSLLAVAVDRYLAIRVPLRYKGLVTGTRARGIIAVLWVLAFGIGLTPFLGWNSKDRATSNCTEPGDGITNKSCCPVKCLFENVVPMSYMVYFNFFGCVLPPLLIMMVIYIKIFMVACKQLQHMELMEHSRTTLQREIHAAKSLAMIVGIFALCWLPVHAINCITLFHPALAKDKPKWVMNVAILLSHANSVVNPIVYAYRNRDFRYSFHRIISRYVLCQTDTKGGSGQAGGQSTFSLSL

[3] = target: rat A2a-adenosine receptor (Rattus norvegicus, UniProt P30543); settings: COS-6M cells; [3H]NECA 20 nM, [3H]CCPA 2 nM, [3H]CGS-21680 20 nM
[4] = system: non-transformed CHO cells; settings: 100 nM
A2a-adenosine receptors = settings: cited from earlier work
[5] = target: T2, RFL9 (rat A2b-adenosine receptor); experiment: cAMP response in COS-6M cells transfected with RFL9; type: cell-based
[6] = target: T2, RFL9 (rat A2b-adenosine receptor); experiment: cAMP in CHO cells stably transfected with RFL9; type: cell-based; settings: NECA 1 μM; four clones
Source text: Eight clones were identified which expressed RFL9 mRNA.
Generation of Stable Cell Lines
RNA was extracted from cells following NP-40 lysis.
Cyclic AMP Studies on Stable Transfectants

CHO cells = experiment: cAMP accumulation in non-transformed CHO cells; type: cell-based, Chinese Hamster; settings: 1 mM; CHO cells not transformed; n=3
[7] = target: T2, RFL9 (rat A2b-adenosine receptor); experiment: [3H]NECA specific binding to RFL9-transformed CHO cells; settings: 100 nM; n=3
Source text: All determinations were done in triplicate.

[8] = system: dog A2a-adenosine receptor; settings: cited from earlier work

SMILES: OC[C@H]1O[C@@H](n2cnc3c(NC4CCCC4)nc(Cl)nc32)[C@H](O)[C@@H]1O [[^3 H]CCPA, [^3 H]2-chloro-N-cyclopentyladenosine]
- specific binding [1]: specifically bound
- specific binding [2]: did not bind; also recorded: do not bind either the A1 - or A2a -receptor-specific agonists with high affinity
- specific binding [3]: Only cells transfected with the A1 -adenosine receptor cDNA specifically bound

SMILES: CCNC(=O)[C@H]1O[C@@H](n2cnc3c(N)ncnc32)[C@H](O)[C@@H]1O [[^3 H]NECA] [[^3 H]5'-N-ethylcarboxamidoadenosine]
- specific binding [1]: specifically bound
- [3H]NECA specific binding [4]: 100 ± 23 fmol/mg

SMILES: CCNC(=O)[C@H]1O[C@@H](n2cnc3c(N)ncnc32)[C@H](O)[C@@H]1O [NECA, 5'-N-ethylcarboxamidoadenosine]
- affinity for A2a-adenosine receptors (A2a-adenosine receptors): high affinity
- specific binding [2]: bind the nonselective adenosine agonist NECA
- EC100 ([5]; 10 min, read-out: concentration of maximal stimulation of cAMP): 10 µM
- NECA-stimulated increase in cAMP levels ([5]; dose-response): dose-dependent increase in cAMP levels
- stimulation of clones [6]: all were found to be stimulated by NECA addition

SMILES: Nc1ncnc2c1ncn2[C@@H]1O[C@H](CO)[C@@H](O)[C@H]1O [adenosine]
- cAMP accumulation (CHO cells): Neither NECA or adenosine (1 mM) induced cAMP accumulation

SMILES: Cn1c(=O)c2[nH]cnc2n(C)c1=O [aminophylline]
- inhibition of maximal NECA-stimulated increase in cAMP levels ([5]; antagonist 10^-2 M): completely blocked; also recorded: completely inhibited

SMILES: CCNC(=O)[C@H]1O[C@@H](n2cnc3c(N)nc(NCCc4ccc(CCC(=O)O)cc4)nc32)[C@H](O)[C@@H]1O [[^3 H]CGS-21680, [^3 H]2-[p-(2-carboxyethyl)phenethylamino]5'-N-ethylcarbox-amidoadenosine]
- specific binding [1]: Only cells transfected with the A2a -adenosine receptor cDNA specifically bound

SMILES: COc1ccc2[nH]c([125I])c(CCNC(C)=O)c2c1 [2[^125 1]melatonin]
- specific binding of 2[125I]melatonin [2]: do not exhibit specific binding

SMILES: CCNC(=O)[C@H]1O[C@@H](n2cnc3c(N)ncnc32)[C@H](O)[C@@H]1O [[^3 H]NECA, [^3 H]5'-N-ethylcarboxamidoadenosine]
- [3H]NECA specific binding [7]: 150 ± 20 fmol/mg
- specific binding [2]: specifically bound

SMILES: CCNC(=O)[C@H]1O[C@@H](n2cnc3c(N)nc(NCCc4ccc(CCC(=O)O)cc4)nc32)[C@H](O)[C@@H]1O [CGS-21680, 2-[p-(2-carboxyethyl)phenethylamino]5'-N-ethylcarbox-amidoadenosine]
- affinity for dog A2a-adenosine receptor [8]: high affinity
